# Test results published in PubChem BioAssay AID652064 (Molecular Libraries Program, Specialized Chemistry Center, …, 2013).
# Calls of active or inactive are those of the source. No rule for the calls is given here.
# Test system: human cells, XBP1 mRNA qRT-PCR
# Assay: compound effect on XBP1 transcript levels – cell-based, quantitative RT-PCR, medium throughput (AID 652064)
row,SMILES,IC50
1,Cc1nn(C(C)(C)C)c(C)c1/C=N/OC(=O)Nc1ccc(Cl)cc1,20.1 µM (inactive)
2,C=CCn1c(C)cc(C2=NN=C(NCC)SC2)c1C,6.85 µM (inactive)
3,CCN=C1NN=C(c2cc(C)n(Cc3ccco3)c2C)CS1,10.2 µM (inactive)
4,Cc1cc(C2=NNC(=NC3CC3)SC2)c(C)n1-c1ccccc1F,6.31 µM (inactive)
5,Cc1cc(C2=NNC(=NC3CC3)SC2)c(C)n1-c1ccccc1,4.78 µM (inactive)

# Further lines, results first:
row,IC50,SMILES
1,> 20 µM (inactive),Cc1ccc(NC(=O)c2cc3ccccc3oc2=O)cc1S(=O)(=O)N(C)C
2,> 20 µM (inactive),CC(C)(C)c1ccc(-c2noc(CCC(N)=O)n2)cc1
3,8.67 µM (inactive),Cc1cc(C(=O)COC(=O)c2ccccc2O)c(C)n1Cc1cccs1
4,> 20 µM (inactive),CC(C)(C)c1ccc(C(=O)Nc2ccc(CC(=O)O)cc2)o1
5,7.45 µM (inactive),CCOc1ccc(-c2nc(CSCC(=O)NCc3ccco3)c(C)o2)cc1
6,10.1 µM (inactive),Cc1ccc(NC(=O)O/N=C/c2c(C)nn(C(C)(C)C)c2C)cc1Cl
